Laboratory results taken from patent US11771738B2 (Zoetis Services LLC, priority 2018, dated 2023).
Read-outs that look alike come from different tables or passages of the source.

Tests used:
Format in all cases: cell-based
[1] = system: microfilariae of Dirofilaria immitis; test: Dirofilaria immitis, Microfilaria (DiMf) In Vitro Assay; settings: Dirofilaria immitis, 72 h, read-out: DiMf MED, Minimum Effective Dose, D. immitis microfilariae motility, in vitro
[2] = system: D. immitis L4 larvae; test: Dirofilaria immitis, L4 Stage (DiL4) In Vitro Assay; settings: for minimal effective concentration: Dirofilaria immitis, 72 h, read-out: DiL4 MED, Minimum Effective Dose, D. immitis L4 larvae motility, in vitro; for DiMf/DiL4: larval stage selectivity, ratio of DiMf MED to DiL4 MED
[3] = system: third stage larvae of Haemonchus contortus; test: Haemonchus contortus, Larvae Stage 3 (HcL3) In Vitro Assay; settings: Haemonchus contortus, 96 h
[4] = read-out: HcL3 MED, Haemonchus contortus third stage larvae in vitro, class mark appended to the Ex # in Table 3
[5] = read-out: HcL3 MED, Minimum Effective Dose, H. contortus third stage larvae, approximately 96 hours
[6] = read-out: HcL3 MED, approximately 96 hours incubation, multiple-resistant field isolate

| Structure (SMILES) | minimal effective concentration [1] [µM] | minimal effective concentration [2] [µM] | DiMf/DiL4 [2] | minimal effective concentration [3, 4] [µM] | minimal effective concentration [3, 5] [µM] | minimal effective concentration [3, 6] [µM] |
| --- | --- | --- | --- | --- | --- | --- |
| Cc1csc(Cc2ccc(C[C@H]3OC(=O)[C@H](CC(C)C)N(C)C(=O)[C@@H](C)OC(=O)[C@H](CC(C)C)N(C)C(=O)[C@@H](Cc4ccc(Cc5cc(C)cs5)cc4)OC(=O)[C@H](CC(C)C)N(C)C(=O)[C@@H](C)OC(=O)[C@H](CC(C)C)N(C)C3=O)cc2)c1 [Example 3-124, (3S,6R,9S,12R,15S,18R,21S,24R)-3,9,15,21-tetraisobutyl-4,6,10,16,18,22-hexamethyl-12,24-bis(4-((4-methylthiophen-2-yl)methyl)benzyl)-1,7,13,19-tetraoxa-4,10,16,22-tetraazacyclotetracosan-2,5,8,11,14,17,20,23-octaone] | 0.1 | 0.001 | 100 | < 1 | 0.3 | ≤ 1 |
| CC(C)C[C@H]1C(=O)O[C@H](Cc2ccc(Cc3sccc3Br)cc2)C(=O)N(C)[C@@H](CC(C)C)C(=O)O[C@H](C)C(=O)N(C)[C@@H](CC(C)C)C(=O)O[C@H](Cc2ccc(Cc3sccc3Br)cc2)C(=O)N(C)[C@@H](CC(C)C)C(=O)O[C@H](C)C(=O)N1C [Example 3-125, (3S,6R,9S,12R,15S,18R,21S,24R)-6,18-bis(4-((3-bromothiophen-2-yl)methyl)benzyl)-3,9,15,21-tetraisobutyl-4,10,12,16,22,24-hexamethyl-1,7,13,19-tetraoxa-4,10,16,22-tetraazacyclotetracosan-2,5,8,11,14,17,20,23-octaone] | 0.03 | < 0.0002 | >150 |  | > 100 |  |
| CC(C)C[C@H]1C(=O)O[C@H](Cc2ccc([C@H](O)c3sccc3Br)cc2)C(=O)N(C)[C@@H](CC(C)C)C(=O)O[C@H](C)C(=O)N(C)[C@@H](CC(C)C)C(=O)O[C@H](Cc2ccc([C@@H](O)c3sccc3Br)cc2)C(=O)N(C)[C@@H](CC(C)C)C(=O)O[C@H](C)C(=O)N1C [Example 3-132, (3S,6R,9S,12R,15S,18R,21S,24R)-6-(4-((R)-(3-bromothiophen-2-yl)(hydroxy)methyl)benzyl)-18-(4-((S)-(3-bromothiophen-2-yl)(hydroxy)methyl)benzyl)-3,9,15,21-tetraisobutyl-4,10,12,16,22,24-hexamethyl-1,7,13,19-tetraoxa-4,10,16,22-tetraazacyclotetracosan-2,5,8,11,14,17,20,23-octaone] | 0.01 | 0.0004 | 25 |  | > 10 |  |
| COc1cc(C)c(Cc2ccc(C[C@H]3OC(=O)[C@H](CC(C)C)N(C)C(=O)[C@@H](C)OC(=O)[C@H](CC(C)C)N(C)C(=O)[C@@H](Cc4ccc(Cc5cnc(OC)cc5C)cc4)OC(=O)[C@H](CC(C)C)N(C)C(=O)[C@@H](C)OC(=O)[C@H](CC(C)C)N(C)C3=O)cc2)cn1 [Example 3-133, (3S,6R,9S,12R,15S,18R,21S,24R)-3,9,15,21-tetraisobutyl-6,18-bis(4-((6-methoxy-4-methylpyridin-3-yl)methyl)benzyl)-4,10,12,16,22,24-hexamethyl-1,7,13,19-tetraoxa-4,10,16,22-tetraazacyclotetracosan-2,5,8,11,14,17,20,23-octaone] | 0.02 | 0.0003 | 66.7 |  | 57 |  |
| CC(C)C[C@H]1C(=O)O[C@H](Cc2ccc(Cc3cnco3)cc2)C(=O)N(C)[C@@H](CC(C)C)C(=O)O[C@H](C)C(=O)N(C)[C@@H](CC(C)C)C(=O)O[C@H](Cc2ccc(Cc3cnco3)cc2)C(=O)N(C)[C@@H](CC(C)C)C(=O)O[C@H](C)C(=O)N1C [Example 3-148, (3S,6R,9S,12R,15S,18R,21S,24R)-3,9,15,21-tetraisobutyl-4,6,10,16,18,22-hexamethyl-12,24-bis(4-(oxazol-5-ylmethyl)benzyl)-1,7,13,19-tetraoxa-4,10,16,22-tetraazacyclotetracosan-2,5,8,11,14,17,20,23-octaone] | 0.001 | 0.0003 | 3.3 | 1 to 3.3 | 3 |  |
| Cc1ncsc1Cc1ccc(C[C@H]2OC(=O)[C@H](CC(C)C)N(C)C(=O)[C@@H](C)OC(=O)[C@H](CC(C)C)N(C)C(=O)[C@@H](Cc3ccc(Cc4scnc4C)cc3)OC(=O)[C@H](CC(C)C)N(C)C(=O)[C@@H](C)OC(=O)[C@H](CC(C)C)N(C)C2=O)cc1 [Example 3-155, (3S,6R,9S,12R,15S,18R,21S,24R)-3,9,15,21-tetraisobutyl-4,6,10,16,18,22-hexamethyl-12,24-bis(4-((4-methylthiazol-5-yl)methyl)benzyl)-1,7,13,19-tetraoxa-4,10,16,22-tetraazacyclotetracosan-2,5,8,11,14,17,20,23-octaone] | 0.0001 | 2e-05 | 5 | < 1 | 0.5 | ≤ 1 |
| CC(C)C[C@H]1C(=O)O[C@H](Cc2ccc(Cc3ccns3)cc2)C(=O)N(C)[C@@H](CC(C)C)C(=O)O[C@H](C)C(=O)N(C)[C@@H](CC(C)C)C(=O)O[C@H](Cc2ccc(Cc3ccns3)cc2)C(=O)N(C)[C@@H](CC(C)C)C(=O)O[C@H](C)C(=O)N1C [Example 3-156, (3S,6R,9S,12R,15S,18R,21S,24R)-3,9,15,21-tetraisobutyl-6,18-bis(4-(isothiazol-5-ylmethyl)benzyl)-4,10,12,16,22,24-hexamethyl-1,7,13,19-tetraoxa-4,10,16,22-tetraazacyclotetracosan-2,5,8,11,14,17,20,23-octaone] | 0.0005 | 0.0001 | 5 |  | 5.6 |  |
| Cc1ccc(Cc2ccc(C[C@H]3OC(=O)[C@H](CC(C)C)N(C)C(=O)[C@@H](C)OC(=O)[C@H](CC(C)C)N(C)C(=O)[C@@H](Cc4ccc(Cc5ccc(C)o5)cc4)OC(=O)[C@H](CC(C)C)N(C)C(=O)[C@@H](C)OC(=O)[C@H](CC(C)C)N(C)C3=O)cc2)o1 [Example 3-157, (3S,6R,9S,12R,15S,18R,21S,24R)-3,9,15,21-tetraisobutyl-4,6,10,16,18,22-hexamethyl-12,24-bis(4-((5-methylfuran-2-yl)methyl)benzyl)-1,7,13,19-tetraoxa-4,10,16,22-tetraazacyclotetracosan-2,5,8,11,14,17,20,23-octaone] | 0.1 | 0.001 | 100 |  | > 100 |  |
| CCOc1ncccc1Cc1ccc(C[C@H]2OC(=O)[C@H](CC(C)C)N(C)C(=O)[C@@H](C)OC(=O)[C@H](CC(C)C)N(C)C(=O)[C@@H](Cc3ccc(Cc4cccnc4OCC)cc3)OC(=O)[C@H](CC(C)C)N(C)C(=O)[C@@H](C)OC(=O)[C@H](CC(C)C)N(C)C2=O)cc1 [Example 3-165, (3S,6R,9S,12R,15S,18R,21S,24R)-6,18-bis(4-((2-ethoxypyridin-3-yl)methyl)benzyl)-3,9,15,21-tetraisobutyl-4,10,12,16,22,24-hexamethyl-1,7,13,19-tetraoxa-4,10,16,22-tetraazacyclotetracosan-2,5,8,11,14,17,20,23-octaone] | 0.2 | 0.001 | 200 |  | > 100 |  |
| CC(C)C[C@H]1C(=O)O[C@H](Cc2ccc(Cc3ccoc3)cc2)C(=O)N(C)[C@@H](CC(C)C)C(=O)O[C@H](C)C(=O)N(C)[C@@H](CC(C)C)C(=O)O[C@H](Cc2ccc(Cc3ccoc3)cc2)C(=O)N(C)[C@@H](CC(C)C)C(=O)O[C@H](C)C(=O)N1C [Example 3-173, (3S,6R,9S,12R,15S,18R,21S,24R)-6,18-bis(4-(furan-3-ylmethyl)benzyl)-3,9,15,21-tetraisobutyl-4,10,12,16,22,24-hexamethyl-1,7,13,19-tetraoxa-4,10,16,22-tetraazacyclotetracosan-2,5,8,11,14,17,20,23-octaone] | 0.003 | < 0.0001 | >30 | 1 to 3.3 | 3.3 |  |
| CC(C)C[C@H]1C(=O)O[C@H](Cc2ccc(Cc3cccnc3N(C)C)cc2)C(=O)N(C)[C@@H](CC(C)C)C(=O)O[C@H](C)C(=O)N(C)[C@@H](CC(C)C)C(=O)O[C@H](Cc2ccc(Cc3cccnc3N(C)C)cc2)C(=O)N(C)[C@@H](CC(C)C)C(=O)O[C@H](C)C(=O)N1C [Example 3-176, (3S,6R,9S,12R,15S,18R,21S,24R)-6,18-bis(4-((2-(dimethylamino)pyridin-3-yl)methyl)benzyl)-3,9,15,21-tetraisobutyl-4,10,12,16,22,24-hexamethyl-1,7,13,19-tetraoxa-4,10,16,22-tetraazacyclotetracosan-2,5,8,11,14,17,20,23-octaone] | 0.004 | 0.0003 | 13.3 | 1 to 3.3 | 1.2 |  |
| CC(C)C[C@H]1C(=O)O[C@H](Cc2ccc(Cc3cnc(N4CCOCC4)nc3)cc2)C(=O)N(C)[C@@H](CC(C)C)C(=O)O[C@H](C)C(=O)N(C)[C@@H](CC(C)C)C(=O)O[C@H](Cc2ccc(Cc3cnc(N4CCOCC4)nc3)cc2)C(=O)N(C)[C@@H](CC(C)C)C(=O)O[C@H](C)C(=O)N1C [Example 3-178, (3S,6R,9S,12R,15S,18R,21S,24R)-3,9,15,21-tetraisobutyl-4,6,10,16,18,22-hexamethyl-12,24-bis(4-((2-morpholinopyrimidin-5-yl)methyl)benzyl)-1,7,13,19-tetraoxa-4,10,16,22-tetraazacyclotetracosan-2,5,8,11,14,17,20,23-octaone] | 0.001 | 0.001 | 1 |  | > 100 |  |
